Format in all cases: biochemical
The target in one test is T1, Src (Homo sapiens, UniProt P12931).
T1 construct: purchased Life Technologies
Briefly: Src kinase assay, IMAP fluorescence polarization. The conditions noted are these: 50 or 100 μM ATP, average. The method, then: (§1) SIK2, SIK1, SIK3, Abl, Src and EPHA2 Kinase Assays
(§2) SIK2, SIK1, SIK3, Abl, Src and EPHA2 assays were performed using an IMAP fluorescence polarization assay format (Molecular Devices Inc.). 0.6-13 nM of each kinase (Life Technologies) was incubated for 60 min at room temperature with 100 nM of either FAM-Abltide, FAM-Srctide or FAM-HDAC protein derived peptide (synthesized by Alta Biosciences, Birmingham UK). Assays were carried out in the presence of 50 or 100 μM ATP in either 20 mM Tris buffer (pH 7.2) containing 4 mM MgCl2, 0.2% BSA and 2 mM DTT (SIK2, SIK1, SIK3, Abl, Src); or 20 mM Tris buffer (pH 8.5) containing 20 mM MgCl2, 0.5% BSA, 0.2% Triton and 5 mM DTT (EPHA2). Typically, dose response analyses were performed over concentration ranges from 0.00005-1 μM. Reactions were stopped by adding 2 assay volumes of 0.25% (v/v) IMAP binding reagent in either an 85:15 ratio (SIK2, SIK1, SIK3, Abl, EPHA2) or 30:70 ratio (Src) of IMAP binding buffers A and B (Molecular Devices). After incubation to allow the detection reagents to bind to the phosphorylated peptide, fluorescence polarization was measured on a Tecan Infinite plate reader at excitation (470 nm) and emission (530 nm) wavelengths. Inhibition was calculated using no inhibitor and no enzyme controls as 0 and 100% inhibition, respectively.
(§3) Table 3 provides details of the inhibitory constant (nM) of compounds of the invention at SIK1, SIK2 and SIK3 and other kinases.
(In general: In fluorescence polarisation assays a small probe gives low polarisation when free and higher when bound to something large.)

Another test addresses T2, SIK1 (Homo sapiens, UniProt P57059).
T2 construct: purchased Life Technologies
The test can be described thus: SIK1 kinase assay, IMAP fluorescence polarization. The conditions noted are these: 50 or 100 μM ATP, average. On the procedure: as §1, §2, §3

In a further test the target is T3, Abl (Homo sapiens, UniProt P00519).
T3 construct: purchased Life Technologies
T3 sequence (P00519 whole entry): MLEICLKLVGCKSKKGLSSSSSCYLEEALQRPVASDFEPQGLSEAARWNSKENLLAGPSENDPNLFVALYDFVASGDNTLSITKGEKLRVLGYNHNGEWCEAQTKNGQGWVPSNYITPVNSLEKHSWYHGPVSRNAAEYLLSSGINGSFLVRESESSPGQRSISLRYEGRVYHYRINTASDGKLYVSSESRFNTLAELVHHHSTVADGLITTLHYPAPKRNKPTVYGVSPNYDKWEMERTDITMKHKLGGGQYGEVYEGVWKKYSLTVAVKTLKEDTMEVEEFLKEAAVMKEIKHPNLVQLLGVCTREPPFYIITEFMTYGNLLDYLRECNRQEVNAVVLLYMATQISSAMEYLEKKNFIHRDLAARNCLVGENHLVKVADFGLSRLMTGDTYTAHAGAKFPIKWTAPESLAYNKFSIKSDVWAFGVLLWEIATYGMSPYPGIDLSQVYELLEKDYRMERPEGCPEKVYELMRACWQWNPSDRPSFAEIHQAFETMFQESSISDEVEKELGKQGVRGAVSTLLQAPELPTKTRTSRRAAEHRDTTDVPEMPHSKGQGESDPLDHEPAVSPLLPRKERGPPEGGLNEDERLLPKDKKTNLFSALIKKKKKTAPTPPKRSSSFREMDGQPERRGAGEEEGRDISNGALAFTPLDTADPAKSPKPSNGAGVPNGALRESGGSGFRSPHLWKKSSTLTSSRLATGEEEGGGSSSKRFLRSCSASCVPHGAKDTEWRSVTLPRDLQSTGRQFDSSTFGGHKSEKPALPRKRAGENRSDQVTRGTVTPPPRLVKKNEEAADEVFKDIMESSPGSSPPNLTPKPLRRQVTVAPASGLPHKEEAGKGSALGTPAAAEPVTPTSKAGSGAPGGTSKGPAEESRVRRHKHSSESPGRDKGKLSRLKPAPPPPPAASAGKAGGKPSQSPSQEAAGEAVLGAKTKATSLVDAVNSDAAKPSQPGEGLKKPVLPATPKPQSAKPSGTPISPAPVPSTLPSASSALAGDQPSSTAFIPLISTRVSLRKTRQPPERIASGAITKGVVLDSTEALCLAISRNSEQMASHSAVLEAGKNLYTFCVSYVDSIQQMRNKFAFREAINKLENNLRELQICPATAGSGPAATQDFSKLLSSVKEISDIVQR
The test can be described thus: Abl kinase assay, IMAP fluorescence polarization. The conditions noted are these: 50 or 100 μM ATP, average. The method, then:
as §1, §2, §3

In the next test the target is T4, SIK2 (Homo sapiens, UniProt Q9H0K1).
T4 construct: purchased Life Technologies
T4 sequence (Q9H0K1 whole entry): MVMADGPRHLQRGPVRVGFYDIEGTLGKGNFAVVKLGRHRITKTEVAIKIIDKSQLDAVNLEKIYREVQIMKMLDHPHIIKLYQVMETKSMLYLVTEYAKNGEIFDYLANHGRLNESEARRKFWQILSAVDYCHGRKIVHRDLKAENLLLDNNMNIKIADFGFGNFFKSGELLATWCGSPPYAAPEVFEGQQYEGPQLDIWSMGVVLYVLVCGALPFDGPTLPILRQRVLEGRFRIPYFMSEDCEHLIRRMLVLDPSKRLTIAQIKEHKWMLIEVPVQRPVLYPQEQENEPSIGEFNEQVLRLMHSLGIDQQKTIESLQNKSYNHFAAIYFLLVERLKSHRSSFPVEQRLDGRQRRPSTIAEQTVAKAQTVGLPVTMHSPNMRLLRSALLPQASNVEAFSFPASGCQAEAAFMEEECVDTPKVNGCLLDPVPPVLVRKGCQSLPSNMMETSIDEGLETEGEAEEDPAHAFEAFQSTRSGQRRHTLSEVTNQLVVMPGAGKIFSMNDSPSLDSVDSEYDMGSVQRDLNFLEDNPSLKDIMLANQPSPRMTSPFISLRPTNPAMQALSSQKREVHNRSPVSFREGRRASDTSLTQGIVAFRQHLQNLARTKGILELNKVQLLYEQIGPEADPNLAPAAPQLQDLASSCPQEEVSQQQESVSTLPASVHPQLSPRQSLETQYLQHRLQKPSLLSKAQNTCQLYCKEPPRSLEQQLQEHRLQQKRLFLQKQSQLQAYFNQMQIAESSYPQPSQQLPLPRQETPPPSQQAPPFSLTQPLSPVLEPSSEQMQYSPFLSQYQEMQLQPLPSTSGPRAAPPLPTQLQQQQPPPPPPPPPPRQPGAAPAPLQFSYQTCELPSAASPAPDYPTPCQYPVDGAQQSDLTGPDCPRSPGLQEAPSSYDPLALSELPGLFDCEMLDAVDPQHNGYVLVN
The test can be described thus: SIK2 kinase assay, IMAP fluorescence polarization. The note with it: 50 or 100 μM ATP, average. On the procedure: as §1, §2, §3

A further test has as its target T5, SIK3 (Homo sapiens, UniProt Q9Y2K2).
T5 construct: purchased Life Technologies
Briefly: SIK3 kinase assay, IMAP fluorescence polarization. The note with it: 50 or 100 μM ATP, average. On the procedure:
as §1, §2, §3

In the next test the target is T6, EPHA2 (Homo sapiens, UniProt P29317).
T6 construct: purchased Life Technologies
T6 sequence (P29317 24-976): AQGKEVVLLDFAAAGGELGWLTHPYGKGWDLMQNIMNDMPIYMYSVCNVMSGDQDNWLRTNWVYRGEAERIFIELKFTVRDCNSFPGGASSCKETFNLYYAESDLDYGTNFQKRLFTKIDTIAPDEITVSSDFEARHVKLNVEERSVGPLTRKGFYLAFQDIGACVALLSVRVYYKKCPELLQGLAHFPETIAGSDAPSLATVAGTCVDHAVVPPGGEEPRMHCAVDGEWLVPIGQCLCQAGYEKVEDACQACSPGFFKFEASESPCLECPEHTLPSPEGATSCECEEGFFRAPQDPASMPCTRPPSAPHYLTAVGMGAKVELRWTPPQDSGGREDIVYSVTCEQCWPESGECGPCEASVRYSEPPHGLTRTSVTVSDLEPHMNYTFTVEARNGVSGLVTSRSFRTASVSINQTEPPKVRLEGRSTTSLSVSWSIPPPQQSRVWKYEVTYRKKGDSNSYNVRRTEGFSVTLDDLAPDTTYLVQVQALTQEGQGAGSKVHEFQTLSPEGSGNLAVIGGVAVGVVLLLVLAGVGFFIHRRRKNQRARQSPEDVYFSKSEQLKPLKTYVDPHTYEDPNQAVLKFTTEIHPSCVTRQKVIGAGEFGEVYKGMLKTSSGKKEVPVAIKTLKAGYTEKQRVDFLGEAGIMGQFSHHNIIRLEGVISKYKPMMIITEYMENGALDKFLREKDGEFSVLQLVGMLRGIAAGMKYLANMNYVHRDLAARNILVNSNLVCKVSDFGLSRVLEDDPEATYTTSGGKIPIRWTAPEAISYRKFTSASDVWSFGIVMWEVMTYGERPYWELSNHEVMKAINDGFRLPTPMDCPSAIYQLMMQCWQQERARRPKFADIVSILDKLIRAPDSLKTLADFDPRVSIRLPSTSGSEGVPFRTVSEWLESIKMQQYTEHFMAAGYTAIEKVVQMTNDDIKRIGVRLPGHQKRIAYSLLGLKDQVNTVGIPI
Briefly: EPHA2 kinase assay, IMAP fluorescence polarization. The note with it: 50 or 100 μM ATP, Tris pH 8.5, average. On the procedure: as §1, §2, §3

Drawing on patent publication US12637428B2, “Isoquinoline derivatives as SIK2 inhibitors” (Cancer Research Technology Limited, priority 2019, dated 2026), this text covers Ki for 28 molecules.

T5 sequence (Q9Y2K2 whole entry): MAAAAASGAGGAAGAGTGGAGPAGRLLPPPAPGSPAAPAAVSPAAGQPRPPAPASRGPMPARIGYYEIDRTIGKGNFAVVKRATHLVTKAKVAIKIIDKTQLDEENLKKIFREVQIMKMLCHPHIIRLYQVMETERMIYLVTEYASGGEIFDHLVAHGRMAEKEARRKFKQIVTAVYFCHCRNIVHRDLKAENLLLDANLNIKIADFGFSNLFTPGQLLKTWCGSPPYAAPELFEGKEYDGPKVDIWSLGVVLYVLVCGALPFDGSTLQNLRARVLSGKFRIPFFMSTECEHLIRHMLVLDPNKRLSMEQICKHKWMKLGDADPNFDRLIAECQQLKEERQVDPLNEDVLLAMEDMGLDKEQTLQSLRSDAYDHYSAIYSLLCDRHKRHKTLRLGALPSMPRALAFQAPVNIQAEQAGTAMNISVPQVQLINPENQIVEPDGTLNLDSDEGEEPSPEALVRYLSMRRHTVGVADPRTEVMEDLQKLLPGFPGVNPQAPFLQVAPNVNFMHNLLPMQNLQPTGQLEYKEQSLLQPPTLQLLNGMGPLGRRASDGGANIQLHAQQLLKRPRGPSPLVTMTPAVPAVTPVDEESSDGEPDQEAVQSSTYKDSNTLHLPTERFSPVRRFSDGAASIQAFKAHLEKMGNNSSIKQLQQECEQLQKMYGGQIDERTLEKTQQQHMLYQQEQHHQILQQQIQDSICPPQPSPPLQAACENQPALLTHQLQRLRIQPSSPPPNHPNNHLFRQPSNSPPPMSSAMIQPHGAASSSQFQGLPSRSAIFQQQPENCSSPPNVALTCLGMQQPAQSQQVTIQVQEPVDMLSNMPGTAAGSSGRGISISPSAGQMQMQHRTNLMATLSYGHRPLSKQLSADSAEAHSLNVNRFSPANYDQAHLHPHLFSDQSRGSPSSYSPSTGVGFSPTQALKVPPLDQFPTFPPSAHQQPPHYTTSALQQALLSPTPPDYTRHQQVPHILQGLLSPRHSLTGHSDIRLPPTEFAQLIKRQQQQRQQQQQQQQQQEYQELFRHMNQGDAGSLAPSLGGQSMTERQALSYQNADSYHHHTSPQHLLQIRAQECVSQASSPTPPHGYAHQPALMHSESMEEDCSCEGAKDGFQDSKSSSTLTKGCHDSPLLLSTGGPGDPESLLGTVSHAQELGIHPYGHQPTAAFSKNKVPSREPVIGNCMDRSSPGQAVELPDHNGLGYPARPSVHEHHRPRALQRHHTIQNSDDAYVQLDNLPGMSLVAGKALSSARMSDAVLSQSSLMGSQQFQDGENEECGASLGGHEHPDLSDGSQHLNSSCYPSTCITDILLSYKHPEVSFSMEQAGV
T2 sequence (P57059 whole entry): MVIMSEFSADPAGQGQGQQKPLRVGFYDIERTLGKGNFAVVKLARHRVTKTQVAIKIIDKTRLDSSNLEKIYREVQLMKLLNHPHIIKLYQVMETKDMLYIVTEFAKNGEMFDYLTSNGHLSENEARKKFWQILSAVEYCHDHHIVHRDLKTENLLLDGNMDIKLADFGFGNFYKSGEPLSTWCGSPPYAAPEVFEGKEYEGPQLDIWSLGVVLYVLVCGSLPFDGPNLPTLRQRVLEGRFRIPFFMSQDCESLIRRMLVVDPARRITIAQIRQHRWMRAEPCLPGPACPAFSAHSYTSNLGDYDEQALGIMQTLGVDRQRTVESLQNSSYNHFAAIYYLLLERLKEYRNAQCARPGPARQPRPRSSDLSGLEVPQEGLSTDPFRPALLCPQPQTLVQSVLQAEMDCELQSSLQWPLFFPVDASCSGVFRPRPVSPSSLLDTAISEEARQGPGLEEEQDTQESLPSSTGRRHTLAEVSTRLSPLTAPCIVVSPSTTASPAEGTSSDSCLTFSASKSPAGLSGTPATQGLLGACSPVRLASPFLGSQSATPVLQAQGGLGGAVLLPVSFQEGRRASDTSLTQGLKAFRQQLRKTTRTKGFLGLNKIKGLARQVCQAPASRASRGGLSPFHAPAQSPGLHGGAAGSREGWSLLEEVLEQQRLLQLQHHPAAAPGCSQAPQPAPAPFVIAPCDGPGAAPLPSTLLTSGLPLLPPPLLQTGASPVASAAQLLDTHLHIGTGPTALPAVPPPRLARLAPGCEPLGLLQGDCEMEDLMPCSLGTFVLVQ

For the molecule `Cc1cccc(F)c1-c1cc(NC[C@@H]2CCNC2)c2cc(N)ncc2c1` [Example 6, 7-(2-fluoro-6-methyl-phenyl)-N5-[[(3R)-pyrrolidin-3-yl]methyl]isoquinoline-3,5-diamine], the Ki (in general, a dissociation constant, usually derived from enzyme kinetics or from competition with a known ligand) on Src came out at 145 nM; on SIK1, 0.31 nM; at Abl, 0.298 nM; on SIK2, 0.0517 nM; on SIK3, 0.57 nM; on EPHA2, 49.5 nM.

On SIK2, `Cc1cccc(F)c1-c1ccc2c(C(=O)N[C@H]3CCNC3)c(N)ncc2c1` [Example 37, 3-amino-7-(2-fluoro-6-methyl-phenyl)-N-[(3S)-pyrrolidin-3-yl]isoquinoline-4-carboxamide] showed an inhibition constant Ki of 7.74 nM.

Turning to `CNc1cc2c(N3CCC[C@H](N(C)C)C3)cc(-c3c(C)cccc3F)cc2cn1` [Example 83, 5-[(3S)-3-(dimethylamino)-1-piperidyl]-7-(2-fluoro-6-methyl-phenyl)-N-methyl-isoquinolin-3-amine], the inhibitory constant (Ki) on Src was 97.8 nM; on SIK1, 0.55 nM; on Abl, 9.38 nM; on SIK2 it was 0.316 nM; at SIK3 it was 7.35 nM; on EPHA2 it was > 1000 nM.

In the case of `Cc1cccc(Cl)c1-c1ccc2c(C(=O)NCC3CNC3)c(N)ncc2c1` [Example 39, 3-amino-N-(azetidin-3-ylmethyl)-7-(2-chloro-6-methyl-phenyl)isoquinoline-4-carboxamide], the Ki on SIK2 was 19.6 nM.

`Cc1cccc(Cl)c1-c1ccc2c(C(=O)NCC3CCNCC3)c(N)ncc2c1` [Example 40, 3-amino-7-(2-chloro-6-methyl-phenyl)-N-(4-piperidylmethyl)isoquinoline-4-carboxamide]: the Ki on SIK2 came to 39.5 nM.

Regarding `Cc1cccc(F)c1-c1ccc2c(C(=O)NCC3CCN(C)CC3)c(N)ncc2c1` [Example 91, 3-amino-7-(2-fluoro-6-methyl-phenyl)-N-[(1-methyl-4-piperidyl)methyl] isoquinoline-4-carboxamide], the affinity on SIK2, expressed as Ki, was 47.6 nM.

Consider `Cc1cccc(Cl)c1-c1ccc2c(C(=O)NC3CCNCC3)c(N)ncc2c1` [Example 41, 3-amino-7-(2-chloro-6-methyl-phenyl)-N-(4-piperidyl)isoquinoline-4-carboxamide], for which the Ki on Src came to 58.4 nM; at SIK1 it was 6.07 nM; on Abl it was 190 nM; on SIK2, 3.75 nM; at SIK3, 61.7 nM.

Take `Cc1cccc(F)c1-c1ccc2c(C(=O)NC3CCN(C)CC3)c(N)ncc2c1` [Example 87, 3-Amino-7-(2-fluoro-6-methyl-phenyl)-N-(1-methyl-4-piperidyl)isoquinoline-4-carboxamide]: the inhibition constant (Ki) on Src worked out at 574 nM; on Abl it was 667 nM; on SIK2 it was 9.99 nM.

On to `CN1CCC(Nc2cc(-c3c(F)cccc3Cl)cc3cnc(N)cc23)CC1` [Example 64, 7-(2-Chloro-6-fluoro-phenyl)-N5-(1-methyl-4-piperidyl)isoquinoline-3,5-diamine], for which the inhibitory constant (Ki) on Src is 2420 nM; on Abl it was > 10000 nM; at SIK2, 11.7 nM.

Consider `Cc1cccc(F)c1-c1cc(N2CC[C@H](O)C2)c2cc(N)ncc2c1` [Example 105, (3S)-1-[3-amino-7-(2-fluoro-6-methyl-phenyl)-5-isoquinolyl]pyrrolidin-3-ol], for which the inhibition constant (Ki) was > 10000 nM on Src, 169 nM at Abl and 38.1 nM on SIK2.

With `Cc1cccc(F)c1-c1ccc2c(C(=O)NCC3CNC3)c(N)ncc2c1` [Example 33, 3-amino-N-(azetidin-3-ylmethyl)-7-(2-fluoro-6-methyl-phenyl)isoquinoline-4-carboxamide], the inhibitory constant (Ki) on SIK2 was 11.8 nM.

Regarding `Cc1cccc(F)c1-c1ccc2c(C(=O)N[C@H]3CCN(C)C3)c(N)ncc2c1` [Example 93, 3-amino-7-(2-fluoro-6-methyl-phenyl)-N-[(3S)-1-methylpyrrolidin-3-yl]isoquinoline-4-carboxamide], the inhibitory constant (Ki) on SIK2 came to 26.8 nM.

With `Cc1cccc(Cl)c1-c1ccc2c(C(=O)NC3CN(C)C3)c(N)ncc2c1` [Example 94, 3-amino-7-(2-chloro-6-methyl-phenyl)-N-(1-methylazetidin-3-yl)isoquinoline-4-carboxamide], affinity at SIK2 was put at a Ki of 14.4 nM.

`Cc1cccc(F)c1-c1cc(NC2CCCCC2)c2cc(N)ncc2c1` [Example 111, N5-cyclohexyl-7-(2-fluoro-6-methyl-phenyl)isoquinoline-3,5-diamine] yielded a Ki at SIK2 of 83.5 nM.

At SIK2, `Cc1cccc(Cl)c1-c1ccc2c(C(=O)NCC3CCN(C)CC3)c(N)ncc2c1` [Example 96, 3-amino-7-(2-chloro-6-methyl-phenyl)-N-[(1-methyl-4-piperidyl)methyl] isoquinoline-4-carboxamide] displayed a Ki of 54.5 nM.

In turn, `Cc1cccc(F)c1-c1ccc2c(C(=O)N[C@@H]3CCN(C)C3)c(N)ncc2c1` [Example 92, 3-amino-7-(2-fluoro-6-methyl-phenyl)-N-[(3R)-1-methylpyrrolidin-3-yl]isoquinoline-4-carboxamide] registered an inhibition constant (Ki) at SIK2 of 16.8 nM.

For `Cc1cccc(F)c1-c1ccc2c(C(=O)NC3CCNCC3)c(N)ncc2c1` [Example 35, 3-amino-7-(2-fluoro-6-methyl-phenyl)-N-(4-piperidyl)isoquinoline-4-carboxamide], the Ki on Src stood at 564 nM; on Abl, 446 nM; on SIK2, 11.4 nM.

In the case of `Cc1cccc(F)c1-c1ccc2c(C(=O)NCC3CCNCC3)c(N)ncc2c1` [Example 34, 3-amino-7-(2-fluoro-6-methyl-phenyl)-N-(4-piperidylmethyl)isoquinoline-4-carboxamide], the affinity on SIK2, expressed as Ki, was 41.5 nM.

In the case of `Nc1cc2c(NC3CCNCC3)cc(-c3c(F)cccc3Cl)cc2cn1` [Example 20, 7-(2-chloro-6-fluoro-phenyl)-N5-(4-piperidyl)isoquinoline-3,5-diamine], the Ki on SIK2 stood at 26.1 nM.

On SIK2, `Cc1cccc(Cl)c1-c1ccc2c(C(=O)NCC3CN(C)C3)c(N)ncc2c1` [Example 95, 3-amino-7-(2-chloro-6-methyl-phenyl)-N-[(1-methylazetidin-3-yl)methyl]isoquinoline-4-carboxamide] registered an inhibitory constant (Ki) of 31.6 nM.

Turning to `Cc1cccc(F)c1-c1cc(N2CC[C@@H](CN(C)C)C2)c2cc(N)ncc2c1` [Example 81, 5-[(3S)-3-[(dimethylamino)methyl]pyrrolidin-1-yl]-7-(2-fluoro-6-methyl-phenyl) isoquinolin-3-amine], the inhibitory constant (Ki) at Src stood at 1350 nM; on Abl it was 296 nM; at SIK2, 7.68 nM.

As for `Cc1cccc(Cl)c1-c1ccc2c(C(=O)N[C@H]3CCN(C)C3)c(N)ncc2c1` [Example 98, 3-amino-7-(2-chloro-6-methyl-phenyl)-N-[(3S)-1-methylpyrrolidin-3-yl]isoquinoline-4-carboxamide], the Ki at Src came out at 317 nM; on Abl, 481 nM; at SIK2 it was 12.8 nM.

Molecule `Cc1cccc(Cl)c1-c1ccc2c(C(=O)N[C@@H]3CCN(C)C3)c(N)ncc2c1` [Example 97, 3-amino-7-(2-chloro-6-methyl-phenyl)-N-[(3R)-1-methylpyrrolidin-3-yl]isoquinoline-4-carboxamide] showed an inhibitory constant (Ki) at SIK2 of 13 nM.

`Cc1cccc(F)c1-c1ccc2c(C(=O)N[C@@H]3CCNC3)c(N)ncc2c1` [Example 36, 3-amino-7-(2-fluoro-6-methyl-phenyl)-N-[(3R)-pyrrolidin-3-yl]isoquinoline-4-carboxamide] showed an inhibition constant (Ki) at SIK2 of 18.2 nM.

As to `Cc1cccc(Cl)c1-c1ccc2c(C(=O)NC3CNC3)c(N)ncc2c1` [Example 38, 3-amino-N-(azetidin-3-yl)-7-(2-chloro-6-methyl-phenyl)isoquinoline-4-carboxamide], the Ki on Src is 137 nM; on Abl it was 88.5 nM; at SIK2, 11.3 nM; on EPHA2, 764 nM.

With `Cc1cccc(Cl)c1-c1ccc2c(C(=O)N[C@H]3CCNC3)c(N)ncc2c1` [Example 43, 3-amino-7-(2-chloro-6-methyl-phenyl)-N-[(3S)-pyrrolidin-3-yl]isoquinoline-4-carboxamide], the Ki at Src stood at 136 nM; at Abl it was 345 nM; on SIK2 it was 6.54 nM.

As for `Cc1cccc(F)c1-c1ccc2c(C(=O)NC3CNC3)c(N)ncc2c1` [Example 32, 3-Amino-N-(azetidin-3-yl)-7-(2-fluoro-6-methyl-phenyl)isoquinoline-4-carboxamide], the Ki on Src came out at 723 nM; on Abl, 487 nM; at SIK2, 27.3 nM.

In turn, `Cc1cccc(F)c1-c1ccc2c(C(=O)NCC3CN(C)C3)c(N)ncc2c1` [Example 90, 3-amino-7-(2-fluoro-6-methyl-phenyl)-N-[(1-methylazetidin-3-yl)methyl]isoquinoline-4-carboxamide] displayed an inhibitory constant (Ki) on SIK2 of 32.3 nM.
